Laboratory results taken from patent publication US20110275559A1, “Long-Acting Y2 and/or Y4 Receptor Agonists” (Novo Nordisk A/S, priority 2008, published 2011).
*1 amine or outer side, *2 acyl side, *3 side chain or, on linkers, in order; H or OH if unused. Where a SMILES comes first, the peptide text is derived from it. Side-chain parts run from the residue outwards. The star is where a group is joined. C20 diacid = O=C(O)CCCCCCCCCCCCCCCCCCC(=O)*; C18 diacid = O=C(O)CCCCCCCCCCCCCCCCC(=O)*; γGlu = O=C(O)[C@H](CCC(=O)[*:2])N[*:1]; Trx = NC[C@H]1CC[C@H](C(=O)O)CC1; AEEA = NCCOCCOCC(=O)O

Experiment: in vivo
Conditions: Göttingen, minipig, iv
Description: (§1) The mini-pigs had two central venous catheters inserted which were used for intra venous (i.v.) dosing and bloodsampling. Compound was dissolved in 50 mM K2HPO4, 0.05% tween 80, pH=8.0 to a concentration of 180 nmol/ml. The pigs were dosed with 6 nmol compound/kg body weight. […] The blood samples were collected into test tubes containing EDTA buffer for stabilization and kept on ice for max. 20 minutes before centrifugation. The centrifugation procedure to separate plasma was; 4° C., 3000 rpm for 10 minutes. Plasma were collected and immediately transferred to Micronic tubes stored at −20° C. until assayed.
An additional mini-pig PK assay was used for measuring PK of the compounds of the invention. […] The animals had two central venous catheters inserted which were used for intra venous (i.v.) dosing and blood sampling. Compounds were dissolved in 10 mM Na2HPO4, 150 mM NaCl, 0.01% tween 80, pH=4.0 to concentrations in the range of 40 nmol/ml to 200 nmol/ml. The mini-pigs were dosed i.v. with 10 nmol compound/kg body weight, occasionally other doses such as 4 nmol/kg, 30 nmol/kg or 50 nmol/kg were administered. Each compound was dosed to 3 or 4 mini-pigs, and two compounds may be given simultaneously to the same animal. Blood were sampled pre-dose and 12 times during the first 10 hours post-dose. Blood were furthermore sampled once daily until 13 days post dosing. The blood samples were collected into test tubes containing EDTA buffer, trasylol and Val-Pyr for stabilization and kept on ice for max. 20 minutes. Samples were centrifuged at 4° C., 2000G for 10 minutes to separate plasma. Plasma were collected and immediately transferred to Micronic tubes stored at −20° C. until assayed.
Plasma samples were analysed by LC-MS on an LTQ-Orbitrap (ThermoFisher Scientific, Bremen) to which Accela HPLC pumps and an autosampler were connected (both from ThermoFisher). […] HPLC was performed on a Jupiter Proteo column (4μ) 90A (50×2.0 mm ID). […] The flow rate was 0.3 ml/min. For analysis of plasma samples, 30 μl plasma was precipitated with 90 μl ethanol. […] The heptane phase was removed after 5 min and the remaining solution was analysed by LC-MS as described above. For construction of plasma standards, compound was spiked to plasma (minipig) at the following concentrations: 1 nM, 2 nM, 5 nM, 10 nM, 20 nM, 50 nM, 100 nM, 200 nM. The plasma standards were treated as the samples. The lower limit of quantification was estimated to 2 nM.
Non-compartmental analysis (NCA): Plasma concentration-time profiles were analyzed by non-compartmental pharmacokinetics analysis (NCA) using WinNonlin Professional 5.0 (Pharsight Inc., Mountain View, Calif., USA). NCA was performed using the individual plasma concentration-time profiles from each animal.
For determination of plasma concentration of the PYY and PP peptide derivative or analogues thereof the following Methods 1-4 were used.
as §1, with “bloodsampling. The compound” for “bloodsampling. Compound”, “to an appropriate” for “to a”, “concentration (e.g. 25-500 nmol/mL).” for “concentration of 180 nmol/ml.”, “dosed intravenously (i.v.) or subcutaneously (s.c.)” for “dosed”, “with between 1 and 30” for “with 6”, “buffer (with Aprotinin 15000 KIE/mL and Val-Pyr 0.30 mM)” for “buffer”
An additional mini-pig PK assay was used for measuring PK of the compounds of the invention. […] The animals had two central venous catheters inserted which were used for intra venous (i.v.) dosing and blood sampling.

In the case of `CC[C@H](C)[C@H](NC(=O)[C@H](Cc1ccc(O)cc1)NC(=O)[C@H](CCCNC(=N)N)NC(=O)[C@H](CCCNC(=N)N)NC(=O)[C@H](CC(C)C)NC(=O)[C@H](CC(=O)O)NC(=O)[C@H](C)NC(=O)[C@H](C)NC(=O)[C@H](Cc1ccc(O)cc1)NC(=O)[C@H](CCC(N)=O)NC(=O)[C@H](C)NC(=O)[C@H](CCSC)NC(=O)[C@H](CCC(N)=O)NC(=O)[C@H](CCC(=O)O)NC(=O)[C@@H]1CCCN1C(=O)[C@H](CCCCNC(=O)COCCOCCNC(=O)COCCOCCNC(=O)CC[C@H](NC(=O)CCCCCCCCCCCCCCCCC(=O)O)C(=O)O)NC(=O)[C@H](C)NC(=O)[C@H](CC(N)=O)NC(=O)[C@H](CC(=O)O)NC(=O)CNC(=O)[C@@H]1CCCN1C(=O)[C@H](Cc1ccc(O)cc1)NC(=O)[C@@H](NC(=O)[C@@H]1CCCN1C(=O)[C@H](CCC(=O)O)NC(=O)[C@H](CC(C)C)NC(=O)[C@@H]1CCCN1C(=O)[C@H](C)N)C(C)C)C(=O)N[C@@H](CC(N)=O)C(=O)N[C@@H](CCSC)C(=O)N[C@@H](CC(C)C)C(=O)N[C@H](C(=O)N[C@@H](CCCNC(=N)N)C(=O)N1CCC[C@H]1C(=O)N[C@@H](CCCNC(=N)N)C(=O)N[C@@H](Cc1ccc(O)cc1)C(N)=O)[C@@H](C)O` [SEQ ID NO: 24, N-epsilon13-[2-(2-{2-[2-(2-{2-[(S)-4-Carboxy-4-(17-carboxyheptadecanoylamino)butyrylamino]ethoxy}ethoxy)acetylamino]-ethoxy}ethoxy)acetyl][Lys13]hPP(1-36)] (H-APLEPVYPGDNAK([AEEA-AEEA-γGlu-C18 diacid])PEQMAQYAADLRRYINMLTRPRY-NH2; N-terminus and C-terminus assumed), the half-life (20 nmol/kg) is reported as 3.5 h.
Compound `CC[C@H](C)[C@H](NC(=O)[C@H](Cc1ccc(O)cc1)NC(=O)[C@H](CCCNC(=N)N)NC(=O)[C@H](CCCNC(=N)N)NC(=O)[C@H](CC(C)C)NC(=O)[C@H](CC(=O)O)NC(=O)[C@H](C)NC(=O)[C@H](C)NC(=O)[C@H](Cc1ccc(O)cc1)NC(=O)[C@H](CCC(N)=O)NC(=O)[C@H](C)NC(=O)[C@H](CC(C)C)NC(=O)[C@H](CCC(N)=O)NC(=O)[C@H](CCC(=O)O)NC(=O)[C@@H]1CCCN1C(=O)[C@@H](NC(=O)[C@H](C)NC(=O)[C@H](CC(N)=O)NC(=O)[C@H](CCCCNC(=O)COCCOCCNC(=O)COCCOCCNC(=O)CC[C@H](NC(=O)[C@H]1CC[C@H](CNC(=O)CCCCCCCCCCCCCCCCCCC(=O)O)CC1)C(=O)O)NC(=O)CNC(=O)[C@@H]1CCCN1C(=O)[C@H](Cc1ccc(O)cc1)NC(=O)[C@@H](NC(=O)[C@@H]1CCCN1C(=O)[C@H](CCC(=O)O)NC(=O)[C@H](CC(C)C)NC(=O)[C@@H]1CCCN1)C(C)C)[C@@H](C)O)C(=O)N[C@@H](CC(N)=O)C(=O)N[C@@H](CC(C)C)C(=O)N[C@@H](CC(C)C)C(=O)N[C@H](C(=O)N[C@@H](CCCNC(=N)N)C(=O)N[C@@H](CCC(N)=O)C(=O)N[C@@H](CCCNC(=N)N)C(=O)N[C@@H](Cc1ccc(O)cc1)C(N)=O)[C@@H](C)O` [SEQ ID NO: 39, N-epsilon10-[2-(2-{2-[2-(2-{2-[(S)-4-Carboxy-4-({trans-4-[(19-carboxynonadecanoylamino)methyl]cyclohexanecarbonyl}amino)butyrylamino]-ethoxy}ethoxy)acetylamino]ethoxy}ethoxy)acetyl][Lys10,Leu17,Leu30,Gln34]hPP2-36] (H-PLEPVYPGK([AEEA-AEEA-γGlu-Trx-C20 diacid])NATPEQLAQYAADLRRYINLLTRQRY-NH2; N-terminus and C-terminus assumed) has a half-life (in vivo, 4 nmol/kg) of 32 h.
`CC[C@H](C)[C@H](NC(=O)[C@H](Cc1ccc(O)cc1)NC(=O)[C@H](CCCNC(=N)N)NC(=O)[C@H](CCCNC(=N)N)NC(=O)[C@H](CC(C)C)NC(=O)[C@H](CC(=O)O)NC(=O)[C@H](C)NC(=O)[C@H](C)NC(=O)[C@H](Cc1ccc(O)cc1)NC(=O)[C@H](CCC(N)=O)NC(=O)[C@H](C)NC(=O)[C@H](CC(C)C)NC(=O)[C@H](CCC(N)=O)NC(=O)[C@H](CCC(=O)O)NC(=O)[C@@H]1CCCN1C(=O)[C@@H](NC(=O)[C@H](C)NC(=O)[C@H](CC(N)=O)NC(=O)[C@H](CC(=O)O)NC(=O)CNC(=O)[C@@H]1CCCN1C(=O)[C@H](Cc1ccc(O)cc1)NC(=O)[C@@H](NC(=O)[C@@H]1CCCN1C(=O)[C@H](CCC(=O)O)NC(=O)[C@H](CC(C)C)NC(=O)[C@@H]1CCCN1)C(C)C)[C@@H](C)O)C(=O)N[C@@H](CC(N)=O)C(=O)N[C@@H](CC(C)C)C(=O)N[C@@H](CC(C)C)C(=O)N[C@H](C(=O)N[C@@H](CCCNC(=N)N)C(=O)N1CCC[C@H]1C(=O)N[C@@H](CCCCNC(=O)COCCOCCNC(=O)COCCOCCNC(=O)CC[C@H](NC(=O)CCCCCCCCCCCCCCCCC(=O)O)C(=O)O)C(=O)N[C@@H](Cc1ccc(O)cc1)C(N)=O)[C@@H](C)O` [SEQ ID NO: 47, N-epsilon35-[2-(2-{2-[2-(2-{2-[(S)-4-Carboxy-4-(17-carboxyheptadecanoylamino)butyrylamino]ethoxy}ethoxy)acetylamino]-ethoxy}ethoxy)acetyl][Leu17,Leu30,Lys35]hPP2-36] (H-PLEPVYPGDNATPEQLAQYAADLRRYINLLTRPK([AEEA-AEEA-γGlu-C18 diacid])Y-NH2) gave a half-life (10 nmol/kg) of 78 h.
`CC[C@H](C)[C@H](NC(=O)[C@H](Cc1ccc(O)cc1)NC(=O)[C@H](CCCNC(=N)N)NC(=O)[C@H](CCCCNC(=O)COCCOCCNC(=O)COCCOCCNC(=O)CC[C@H](NC(=O)CCCCCCCCCCCCCCCCC(=O)O)C(=O)O)NC(=O)[C@H](CC(C)C)NC(=O)[C@H](CC(=O)O)NC(=O)[C@H](C)NC(=O)[C@H](C)NC(=O)[C@H](Cc1ccc(O)cc1)NC(=O)[C@H](CCC(N)=O)NC(=O)[C@H](C)NC(=O)[C@H](CC(C)C)NC(=O)[C@H](CCC(N)=O)NC(=O)[C@H](CCC(=O)O)NC(=O)[C@@H]1CCCN1C(=O)[C@@H](NC(=O)[C@H](C)NC(=O)[C@H](CC(N)=O)NC(=O)[C@H](CC(=O)O)NC(=O)CNC(=O)[C@@H]1CCCN1C(=O)[C@H](Cc1ccc(O)cc1)NC(=O)[C@@H](NC(=O)[C@@H]1CCCN1C(=O)[C@H](CCC(=O)O)NC(=O)[C@H](CC(C)C)NC(=O)[C@@H]1CCCN1)C(C)C)[C@@H](C)O)C(=O)N[C@@H](CC(N)=O)C(=O)N[C@@H](CC(C)C)C(=O)N[C@@H](CC(C)C)C(=O)N[C@H](C(=O)N[C@@H](CCCNC(=N)N)C(=O)N1CCC[C@H]1C(=O)N[C@@H](CCCNC(=N)N)C(=O)N[C@@H](Cc1ccc(O)cc1)C(N)=O)[C@@H](C)O` [SEQ ID NO: 49, N-epsilon25-[2-(2-{2-[2-(2-{2-[(S)-4-Carboxy-4-(17-carboxyheptadecanoylamino)butyrylamino]ethoxy}ethoxy)acetylamino]-ethoxy}ethoxy)acetyl][Leu17,Lys25,Leu30]hPP2-36] (H-PLEPVYPGDNATPEQLAQYAADLK([AEEA-AEEA-γGlu-C18 diacid])RYINLLTRPRY-NH2) showed a half-life (10 nmol/kg) of 88 h.
